Experimental data from patent publication US20210403435A1, “HERBICIDAL COMPOUNDS” (SYNGENTA CROP PROTECTION AG, priority 2018, published 2021).

Legend:
Experiment in all cases: Post-emergence efficacy, glasshouse, evaluated after 13 days
Assay type in all cases: in vivo
[1] = test system: Amaranthus palmeri (AMAPA); conditions: Amaranthus palmeri, 312 h; post-emergence application, 500 g/Ha, evaluated after 13 days; read-out: Control of weed species AMAPA (100=total damage to plant; 0=no damage to plant)
How it was run: (§1)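 Injury assessed 13 days after a post-emergence spray, 0 = no damage and 100 = total damage. Spray liquid: compound in acetone/IF50 (Emulsogen EL360, N-methylpyrrolidone, Dowanol DPM), diluted with 0.25% or 1% sodium lauryl ether sulphate plus 1% ammonium sulphate.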

[2] = test system: Chenopodium album (CHEAL); conditions: Chenopodium album, 312 h; post-emergence application, 500 g/Ha, evaluated after 13 days; read-out: Control of weed species CHEAL (100=total damage to plant; 0=no damage to plant)
How it was run: as §1

[3] = test system: Digitaria sanguinalis (DIGSA); conditions: Digitaria sanguinalis, 312 h; post-emergence application, 500 g/Ha, evaluated after 13 days; read-out: Control of weed species DIGSA (100=total damage to plant; 0=no damage to plant)
How it was run: as §1

[4] = test system: Echinochloa crus-galli (ECHCG); conditions: Echinochloa crus-galli, 312 h; post-emergence application, 500 g/Ha, evaluated after 13 days; read-out: Control of weed species ECHCG (100=total damage to plant; 0=no damage to plant)
How it was run: as §1

Eleusine indica (ELEIN) = conditions: Eleusine indica, 312 h; post-emergence application, 500 g/Ha, evaluated after 13 days; read-out: Control of weed species ELEIN (100=total damage to plant; 0=no damage to plant)
How it was run: as §1

[5] = test system: Euphorbia heterophylla (EPHHL); conditions: Euphorbia heterophylla, 312 h; post-emergence application, 500 g/Ha, evaluated after 13 days; read-out: Control of weed species EPHHL (100=total damage to plant; 0=no damage to plant)
How it was run: as §1

[6] = test system: Ipomoea hederacea (IPOHE); conditions: Ipomoea hederacea, 312 h; post-emergence application, 500 g/Ha, evaluated after 13 days; read-out: Control of weed species IPOHE (100=total damage to plant; 0=no damage to plant)
How it was run: as §1

Lolium perenne (LOLPE) = conditions: Lolium perenne, 312 h; post-emergence application, 500 g/Ha, evaluated after 13 days; read-out: Control of weed species LOLPE (100=total damage to plant; 0=no damage to plant)
How it was run: as §1

Setaria faberi (SETFA) = conditions: Setaria faberi, 312 h; post-emergence application, 500 g/Ha, evaluated after 13 days; read-out: Control of weed species SETFA (100=total damage to plant; 0=no damage to plant)
How it was run: as §1

Row | Compound | pest or weed control at 500 g/ha [1] [%] | pest or weed control at 500 g/ha [2] [%] | pest or weed control at 500 g/ha [3] [%] | pest or weed control at 500 g/ha [4] [%] | pest or weed control at 500 g/ha (Eleusine indica (ELEIN)) [%] | pest or weed control at 500 g/ha [5] [%] | pest or weed control at 500 g/ha [6] [%] | pest or weed control at 500 g/ha (Lolium perenne (LOLPE)) [%] | pest or weed control at 500 g/ha (Setaria faberi (SETFA)) [%]
1 | COCC(C)NC(=O)c1cc[n+](CCC(=O)O)nc1 (stereo not drawn) [Compound A132] | 100 | 100 | 100 | 90 | 100 | 70 | 40 | 90 | 100
2 | O=C(O)CC[n+]1ccc(C(=O)N2CCCC2)cn1 [Compound A26] | 100 | 100 | 100 | 90 | 80 | 90 | 40 | 90 | 100
3 | O=C(O)CC[n+]1ccc(C(=O)NC2CCCCC2)cn1 [Compound A59] | 70 | 50 | 60 | 20 | 20 | 10 | 20 | 20 | 30
4 | CNC(=O)c1cn[n+](CCS(=O)(=O)[O-])cc1-c1ccccc1 [Compound A39] | 70 | 70 | 40 | 40 | 50 | 50 | 20 | 10 | 30
5 | CC1(C)CC(CCNC(=O)c2cc[n+](CCC(=O)O)nc2)=NO1 [Compound A148, 3-[4-[2-(5,5-dimethyl-4H-isoxazol-3-yl)ethylcarbamoyl]pyridazin-1-ium-1-yl]propanoic acid 2,2,2-trifluoroacetate] | 70 | 90 | 80 | 30 | 30 | 40 | 30 | 30 | 50
6 | CC[S+]([O-])CCNC(=O)c1cc[n+](CCC(=O)O)nc1 (stereo not drawn) [Compound A117] | 100 | 80 | 100 | 60 | 50 | 90 | 40 | 50 | 90
7 | CN(C)C(=O)c1cc[n+](CCCS(=O)(=O)O)nc1 [Compound A3] | 90 | 70 | 20 | 20 | 10 | 90 | 20 | 10 | 20
8 | C#CCNC(=O)c1cc[n+](CCS(=O)(=O)[O-])nc1 [Compound A16] | 100 | 90 | 70 | 90 | 90 | 80 | 80 | 60 | 70
9 | CC1(NC(=O)c2cc[n+](CCNS(=O)(=O)[O-])nc2)CC1 [Compound A99] | 50 | 40 | 100 | 60 | 70 | 40 | 30 | 40 | 90
10 | CC(C)CNC(=O)c1cc[n+](CCS(=O)(=O)[O-])nc1 [Compound A37] | 100 | 80 | 70 | 50 | 60 | 70 | 50 | 50 | 70
11 | O=C(O)CC[n+]1ccc(C(=O)NCC(F)(F)F)cn1 [Compound A47] | 100 | 90 | 100 | 100 | 20 | 100 | 90 | 30 | 90
12 | O=C(NC1CC1)c1cc[n+](CCS(=O)(=O)[O-])nc1 [Compound A30] | 100 | 100 | 70 | 40 | 80 | 70 | 70 | 70 | 70
13 | COCCNC(=O)c1cc[n+](CCNS(=O)(=O)[O-])nc1 [Compound A139] | 90 | 100 | 90 | 70 | 100 | 80 | 40 | 20 | 70
14 | O=C(Nc1ccccc1)c1cc[n+](CCS(=O)(=O)[O-])nc1 [Compound A7] | 100 | 90 | 20 | 20 | 40 | 60 | 10 | 20 | 30
15 | O=C(O)CC[n+]1ccc(C(=O)NCC(F)(F)C(F)(F)F)cn1 [Compound A97] | 100 | 100 | 90 | 60 | 60 | 90 | 30 | 90 | 90
16 | C=CCNC(=O)c1cc[n+](CCC(=O)O)nc1 [Compound A19] | 100 | 90 | 100 | 80 | 90 | 90 | 70 | 80 | 80
17 | O=C(NC1CC1)c1cc[n+](CCCOS(=O)(=O)[O-])nc1 [Compound A126] | 10 | 60 | 40 | 60 | 40 | 60 | 50 | 50 | 70
18 | CNS(=O)(=O)CCNC(=O)c1cc[n+](CCC(=O)O)nc1 [Compound A111] | 100 | 90 | 100 | 90 | 100 | 90 | 40 | 70 | 100
19 | O=C(O)CC[n+]1ccc(C(=O)NC2CSC2)cn1 [Compound A69] | 90 | 60 | 100 | 100 | 30 | 70 | 40 | 40 | 100
20 | C=CCNC(=O)c1cc[n+](CCCOS(=O)(=O)[O-])nc1 [Compound A125] | 30 | 60 | 60 | 70 | 30 | 60 | 50 | 60 | 50
